Measurements taken from the supplement of paper PMC4862054.

Key:
[1] = system: HCC1599; assay: normalised viability (% of control), CellTiter-Blue; higher = more viable cells (about 100 = DMSO control); conditions: incubation time: 72 h
Method in brief: (§1)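 Each entry is normalised viability at a single listed concentration within a series. It comes from breast cancer cell lines incubated 72 h with compound in 384-well plates, then measured with CellTiter-Blue fluorescence at 560/590 nm. Every plate was normalised between vehicle (100) and a positive kill control (0).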

[2] = system: CAL-148; assay: as above; conditions: incubation time: 72 h
Method in brief: as §1

[3] = system: MDA-MB-453; assay: as above; conditions: incubation time: 72 h
Method in brief: as §1

[4] = system: MDA-MB-436; assay: as above; conditions: incubation time: 72 h
Method in brief: as §1

[5] = system: BT-549; assay: as above; conditions: incubation time: 72 h
Method in brief: as §1

[6] = system: CAL-85-1; assay: as above; conditions: incubation time: 72 h
Method in brief: as §1

[7] = system: DU-4475; assay: as above; conditions: incubation time: 72 h
Method in brief: as §1

[8] = system: Hs578T; assay: as above; conditions: incubation time: 72 h
Method in brief: as §1

[9] = system: CAL-148; conditions: 72 h
Method in brief: (§2)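 After 72 h on 384-well plates pre-loaded with compound in 5 µl medium, breast cancer cell lines seeded in 20 µl were assayed for viability with 2.5 µl CellTiter-Blue at 37 °C for 2 h, read at 560/590 nm. Each plate was quality-checked by Z'-factor and normalised to vehicle and a positive kill control. EC50 comes from the fitted percent-inhibition dose-response curve, censored at the top concentration, and rows scoring zero for drug sensitivity were left out.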

[10] = system: MDA-MB-453; conditions: 72 h
Method in brief: as §2

[11] = system: HCC1937; conditions: 72 h
Method in brief: as §2

[12] = system: MDA-MB-231; conditions: 72 h
Method in brief: as §2

[13] = system: CAL-120; conditions: 72 h
Method in brief: as §2

Cc1ccc(C(=O)N(CCCN)[C@@H](c2oc3cc(Cl)ccc3c(=O)c2Cc2ccccc2)C(C)C)cc1
normalised viability [%]
Conditions	[1]	[2]	[3]	[4]	[5]	[6]	[7]	[8]
0.3 nM	–	93	123	–	–	92.9	91.4	–
1 nM	97.2	–	–	97.8	87.3	–	–	102
3 nM	–	106	103	–	–	90.1	108	–
10 nM	–	16.1	23.8	–	–	33	52.9	–
100 nM	94.1	–	–	60.6	25.1	–	–	13.6
1000 nM	81.7	–	–	59.2	34.8	–	–	13.6

Conditions	EC50, CellTiter-Blue viability [µM]
[9]	0.00581
[10]	0.00576
[11]	0.00062
[12]	0.00034
[13]	0.00057

NC(=O)Nc1cc(-c2cccc(F)c2)sc1C(=O)N[C@H]1CCCNC1 [AZD 7762]
normalised viability [%]
Conditions	[1]	[2]	[3]	[4]	[5]	[6]	[7]	[8]
0.3 nM	–	110	113	–	–	106	99.3	–
1 nM	93.2	–	–	99	114	–	–	106
3 nM	–	106	93.2	–	–	98.6	109	–
10 nM	–	111	108	–	–	99.4	100	–
100 nM	73.1	–	–	83.7	118	–	–	90
1000 nM	53.9	–	–	18.5	35.5	–	–	27.3

Conditions	EC50, CellTiter-Blue viability [µM]
[9]	0.661
[10]	0.232
[11]	0.613
[12]	0.347
[13]	0.56

CO[C@H]1/C=C\C=C(/C)C(=O)NC2=CC(=O)C(NCCN(C)C)=C(C[C@@H](C)C[C@H](OC)[C@H](O)[C@@H](C)/C=C(\C)[C@@H]1OC(N)=O)C2=O [Alvespimycin]
normalised viability [%]
Conditions	[1]	[2]	[3]	[4]	[5]	[6]	[7]	[8]
0.3 nM	–	107	115	–	–	111	99	–
1 nM	72.9	–	–	90.9	104	–	–	102
3 nM	–	102	87.4	–	–	85.5	93.1	–
10 nM	–	101	61.7	–	–	95.1	84.5	–
100 nM	43	–	–	28.9	33.5	–	–	43.6
1000 nM	31.3	–	–	20.4	21.2	–	–	40.1

Conditions	EC50, CellTiter-Blue viability [µM]
[9]	0.0276
[10]	0.0112
[11]	0.00756
[12]	0.0389
[13]	0.0274

CCN(CCCOc1ccc2c(Nc3cc(CC(=O)Nc4cccc(F)c4)[nH]n3)ncnc2c1)CCOP(=O)(O)O [Barasertib]
normalised viability [%]
Conditions	[1]	[2]	[3]	[4]	[5]	[6]	[7]	[8]
0.3 nM	–	98.4	104	–	–	102	112	–
1 nM	79.4	–	–	126	93.5	–	–	106
3 nM	–	105	92.8	–	–	89.8	105	–
10 nM	–	39.7	65.6	–	–	93.2	91.6	–
100 nM	81.6	–	–	56.5	69.1	–	–	62.6
1000 nM	94.2	–	–	88.1	69.8	–	–	70.7

Conditions	EC50, CellTiter-Blue viability [µM]
[9]	0.00707
[10]	0.00632
[11]	0.0296
[12]	0.156
[13]	0.03

COc1cc2nccc(Oc3ccc(NC(=O)C4(C(=O)Nc5ccc(F)cc5)CC4)cc3)c2cc1OC [Cabozantinib]
normalised viability [%]
Conditions	[1]	[2]	[3]	[4]	[5]	[6]	[7]	[8]
0.3 nM	–	94.5	111	–	–	89.2	90.4	–
1 nM	91.8	–	–	110	96.3	–	–	128
3 nM	–	103	96.9	–	–	87.5	78	–
10 nM	–	94.2	108	–	–	88.9	88.4	–
100 nM	88.6	–	–	102	108	–	–	102
1000 nM	74.6	–	–	97.3	101	–	–	111

Conditions	EC50, CellTiter-Blue viability [µM]
[9]	0.558
[10]	0.874

C[C@@H](Oc1cc(-c2cnn(C3CCNCC3)c2)cnc1N)c1c(Cl)ccc(F)c1Cl [Crizotinib]
normalised viability [%]
Conditions	[1]	[2]	[3]	[4]	[5]	[6]	[7]	[8]
3 nM	–	91.8	95.2	–	–	91.7	94.9	–
10 nM	105	–	–	71.3	107	–	–	102
30 nM	–	94.1	81.3	–	–	91	98.8	–
100 nM	–	100	87.6	–	–	94	96.2	–
1000 nM	99.1	–	–	17.1	107	–	–	103
10000 nM	60.8	–	–	8.24	30.1	–	–	34

Conditions	EC50, CellTiter-Blue viability [µM]
[9]	3.57
[10]	4.07
[11]	2.27
[12]	1.36
[13]	2.64

C#Cc1cccc(Nc2ncnc3cc(OCCOC)c(OCCOC)cc23)c1 [Erlotinib]
normalised viability [%]
Conditions	[1]	[2]	[3]	[4]	[5]	[6]	[7]	[8]
3 nM	–	89.7	109	–	–	93.7	107	–
10 nM	91	–	–	108	117	–	–	123
30 nM	–	102	99.2	–	–	82.8	90.7	–
100 nM	–	98.2	98	–	–	88	86.7	–
1000 nM	74.5	–	–	83.9	106	–	–	120
10000 nM	54.8	–	–	74	66.9	–	–	69

Conditions	EC50, CellTiter-Blue viability [µM]
[9]	3.63
[10]	8.34
[11]	0.937
[13]	2.45

COc1cc([C@@H]2c3cc4c(cc3[C@@H](O[C@@H]3O[C@@H]5CO[C@@H](C)O[C@H]5[C@H](O)[C@H]3O)[C@H]3COC(=O)[C@H]23)OCO4)cc(OC)c1O [Etoposide]
normalised viability [%]
Conditions	[1]	[2]	[3]	[4]	[5]	[6]	[7]	[8]
3 nM	–	88.6	109	–	–	99.9	108	–
10 nM	99.1	–	–	99.8	84.9	–	–	94.6
30 nM	–	81	107	–	–	93.9	72.3	–
100 nM	–	85.7	99.8	–	–	102	61.3	–
1000 nM	94	–	–	84.1	56	–	–	77.1
10000 nM	72.3	–	–	55.2	46.7	–	–	52.4

Conditions	EC50, CellTiter-Blue viability [µM]
[9]	1.13
[11]	3.7
[12]	1.02
[13]	2.26

CC(C)Cn1cnc2c(N)nc3ccccc3c21 [Imiquimod]
normalised viability [%]
Conditions	[1]	[2]	[3]	[4]	[5]	[6]	[7]	[8]
3 nM	–	93.1	94.6	–	–	100	97	–
10 nM	102	–	–	94.2	94.5	–	–	105
30 nM	–	102	105	–	–	90.6	101	–
100 nM	–	98.5	107	–	–	105	99	–
1000 nM	100	–	–	92.3	103	–	–	105
10000 nM	109	–	–	96.6	78.7	–	–	84.9

Conditions	EC50, CellTiter-Blue viability [µM]
[10]	6.69

Cc1ccc(C(=O)Nc2ccc(CN3CCN(C)CC3)c(C(F)(F)F)c2)cc1C#Cc1cnc2cccnn12 [Ponatinib]
normalised viability [%]
Conditions	[1]	[2]	[3]	[4]	[5]	[6]	[7]	[8]
0.3 nM	–	96.8	102	–	–	92.5	91.6	–
1 nM	95.4	–	–	106	107	–	–	105
3 nM	–	105	101	–	–	85.4	91.7	–
10 nM	–	110	87.3	–	–	101	84.5	–
100 nM	95.4	–	–	91.5	120	–	–	110
1000 nM	64.9	–	–	90.5	49.3	–	–	73.9

Conditions	EC50, CellTiter-Blue viability [µM]
[9]	0.295
[10]	0.282
[13]	0.19

Cn1c(Nc2ccc(C(F)(F)F)cc2)nc2cc(Oc3ccnc(-c4ncc(C(F)(F)F)[nH]4)c3)ccc21 [RAF265]
normalised viability [%]
Conditions	[1]	[2]	[3]	[4]	[5]	[6]	[7]	[8]
0.3 nM	–	89.4	99.2	–	–	87.4	102	–
1 nM	104	–	–	120	87.3	–	–	97.8
3 nM	–	87.1	109	–	–	83.3	95.6	–
10 nM	–	89.2	98.3	–	–	89.8	116	–
100 nM	106	–	–	79.6	80.8	–	–	90.9
1000 nM	106	–	–	83.6	78.5	–	–	78.3

Conditions	EC50, CellTiter-Blue viability [µM]
[11]	0.0991
[12]	0.141
[13]	0.0777

CNCc1ccc(-c2[nH]c3cc(F)cc4c3c2CCNC4=O)cc1 [Rucaparib]
normalised viability [%]
Conditions	[1]	[2]	[3]	[4]	[5]	[6]	[7]	[8]
3 nM	–	90.5	111	–	–	93.2	84	–
10 nM	95.8	–	–	103	100	–	–	112
30 nM	–	87.6	89.3	–	–	84.2	96.6	–
100 nM	–	92.6	110	–	–	94.6	83	–
1000 nM	128	–	–	62.6	107	–	–	107
10000 nM	96.2	–	–	98.2	93.8	–	–	94.4

Conditions	EC50, CellTiter-Blue viability [µM]
[9]	7.67
[10]	6.18
[11]	0.945
[12]	0.683

N[C@@H](CSC(c1ccccc1)(c1ccccc1)c1ccccc1)C(=O)O [S-trityl-L-cysteine]
normalised viability [%]
Conditions	[1]	[2]	[3]	[4]	[5]	[6]	[7]	[8]
12 nM	–	112	91.7	–	–	105	117	–
40 nM	94.9	–	–	90.2	83.3	–	–	114
120 nM	–	114	80.9	–	–	106	92.9	–
400 nM	–	114	101	–	–	101	102	–
4000 nM	99.3	–	–	78.6	92.2	–	–	36.6
40000 nM	102	–	–	58.2	24	–	–	16.8

Conditions	EC50, CellTiter-Blue viability [µM]
[11]	0.715
[12]	0.955
[13]	2

CN[C@@H]1C[C@H]2O[C@@](C)([C@@H]1OC)n1c3ccccc3c3c4c(c5c6ccccc6n2c5c31)C(=O)N[C@H]4O [UCN-01]
normalised viability [%]
Conditions	[1]	[2]	[3]	[4]	[5]	[6]	[7]	[8]
3 nM	–	92.2	98	–	–	87.4	109	–
10 nM	81.1	–	–	110	91.4	–	–	88.3
30 nM	–	105	86.8	–	–	73.6	81.5	–
100 nM	–	106	65	–	–	60.4	78.3	–
1000 nM	48.3	–	–	47.8	11.8	–	–	7.74
10000 nM	21.2	–	–	12.8	0.77	–	–	0.41

Conditions	EC50, CellTiter-Blue viability [µM]
[9]	2.35
[10]	0.182
[11]	0.058
[12]	0.0592
[13]	0.0245

CCC1=C[C@@H]2CN(C1)Cc1c([nH]c3ccccc13)[C@@](C(=O)OC)(c1cc3c(cc1OC)N(C)[C@H]1[C@@](O)(C(=O)OC)[C@H](OC(C)=O)[C@]4(CC)C=CCN5CC[C@]31[C@@H]54)C2 [Vinorelbine]
normalised viability [%]
Conditions	[1]	[2]	[3]	[4]	[5]	[6]	[7]	[8]
3 nM	–	106	110	–	–	94.2	96.7	–
10 nM	84.2	–	–	109	94.9	–	–	93.7
30 nM	–	91.4	43	–	–	60.3	91.3	–
100 nM	–	18.7	25.1	–	–	34.5	79.4	–
1000 nM	44.4	–	–	41.4	15.8	–	–	16.1
10000 nM	53.5	–	–	34.6	11.4	–	–	15.9

Conditions	EC50, CellTiter-Blue viability [µM]
[9]	0.0491
[10]	0.00996
[11]	0.0263
[12]	0.0676
[13]	0.0225
